Results: publication PMC8151276, “An Integrated Approach toward NanoBRET Tracers for Analysis of GPCR Ligand Engagement” (Molecules, 2021)

How the values were obtained:
Type in all cases: binding
GCGR = molecular target: T1, GCGR (Homo sapiens, UniProt P47871); experiment: NanoBRET screen HiBiT-GCGR in HEK293
T1 construct: purchased Promega (in-house HiBiT-GPCR construct library, NanoBRET)
Method: (§1) Each tracer candidate was screened across the entire library of HiBiT-GPCR constructs using NanoBRET as the detection modality. As depicted in Figure 4A, the specificity of interactions was evaluated through decrease in BRET due to competitive displacement of a bound tracer by excess parental compound. Each tracer was analyzed for binding to each HiBiT-GPCR fusion in the absence and in the presence of competing parental compound. Briefly, HEK293 cells were transfected with HiBiT-GPCR constructs diluted into promoterless DNA to reduce expression and maximize translocation to the cell surface. Each tracer candidate was then screened at concentrations of 1 μM and 0.1 μM across cells expressing these fusions. Cells were treated for 1.5 h with tracer either alone or in the presence of 20 μM competing parental compound (i.e., control). BRET was measured upon addition of purified LgBiT and subsequent complementation with HiBiT genetically fused to a GPCR. The specificity of interactions was assessed through a decrease in BRET signal due to competitive displacement of the bound tracer. To further gauge the robustness of these interactions, the fold response over the control (i.e., BRETtracer/BRETcontrol) was calculated. We chose a 1.5-fold response, which translates to ≥7-fold signal over noise as the minimal threshold required to score an interaction as positive. […]. Below we highlight the screening results obtained for our exemplary fluorescent tracers based on Clozapine, Amitriptyline and AZD1283.
(§2) HiBiT-GPCR DNA constructs were diluted in 10 mM Tris pH 8 to a final concentration of 0.01 μg/μL, arrayed in 96-well plates and stored at −20 °C. For transfection, HEK293 cells were suspended in Opti-MEM (without phenol red) supplemented with 2% fetal bovine serum (Seradigm) and 100 units/mL penicillin–streptomycin (Gibco) at a final concentration of 220,000 cells/mL and dispensed into white 96-well plates at 90 μL/well. Subsequent transfections and screens were carried using an Agilent Bravo Automated Liquid Handling Platform. First, the 96-well HiBiT DNA arrays were diluted 25-fold in Opti-MEM (without serum or phenol red) to a final concentration of 0.0004 μg/μL and 20 μL of the diluted DNAs were transferred into new 96-well plates. Next, promoterless carrier DNA (1 μg/μL) was diluted 25-fold (0.04 μg/μL) and then dispensed into the diluted arrays at 20 μL/well. Following brief mixing, Viafect transfection reagent (Promega) diluted 16-fold into Opti-MEM was dispensed into the plates at 40 μL/well. After mixing by pipetting, plates were incubated for 10 min on the pipetting station deck. The DNA-transfection reagent complexes were then added to plates containing cells. To facilitate the screen, 10 μL of DNA-transfection reagent complexes were added in duplicates to the top 4 and bottom 4 rows, resulting in two identical 48-well arrays per plate. Plates with transfected cells were incubated for 18–20 h at 37 °C/5% CO2. A screen of each tracer across the entire library using two different concentrations requires duplicate plates of transfected cells. Depending on the number of tracers being screened, transfections can be scaled up using the same ratios. The next day, for each tracer, four 20× screening solutions in tracer dilution buffer (Promega) were prepared: two duplicates at final concentration of 20 μM and two duplicates at a final concentration of 2 μM. A competing unmodified compound was added to one of each duplicate at a final concentration of 400 μM. The four resulting solutions were diluted 4-fold in Opti-MEM without serum or phenol red to generate 5× solutions (5 µM and 0.5 µM tracer +/− 100 μM competing compound). To screen the library, a BioTek MultiFlo FX liquid dispenser was used to dispense 22.5 µL of tracer solution to the top 4 rows and 22.5 µL tracer + competing compound solution to the 4 bottom rows. Plates were briefly mixed on an orbital shaker and incubated for 1.5 h at room temperature. […]

OXER1 = molecular target: T2, OXER1 (Homo sapiens, UniProt Q8TDS5); experiment: NanoBRET screen HiBiT-OXER1 in HEK293
T2 construct: purchased Promega (in-house HiBiT-GPCR construct library, NanoBRET)
Method: as §1, §2

XCR1 = molecular target: T3, XCR1 (Homo sapiens, UniProt P46094); experiment: NanoBRET screen HiBiT-XCR1 in HEK293
T3 construct: purchased Promega (in-house HiBiT-GPCR construct library, NanoBRET)
T3 sequence (P46094 1-333): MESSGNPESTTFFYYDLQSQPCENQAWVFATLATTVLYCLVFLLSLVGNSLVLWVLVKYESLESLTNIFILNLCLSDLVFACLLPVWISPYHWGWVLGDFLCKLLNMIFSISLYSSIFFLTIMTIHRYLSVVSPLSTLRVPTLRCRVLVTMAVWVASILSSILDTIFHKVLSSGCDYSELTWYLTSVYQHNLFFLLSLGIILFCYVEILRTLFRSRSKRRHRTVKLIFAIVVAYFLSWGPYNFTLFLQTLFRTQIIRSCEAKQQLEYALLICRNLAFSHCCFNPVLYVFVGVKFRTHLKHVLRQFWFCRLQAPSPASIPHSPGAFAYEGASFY
Method: as §1, §2

T1 sequence (P47871 26-477): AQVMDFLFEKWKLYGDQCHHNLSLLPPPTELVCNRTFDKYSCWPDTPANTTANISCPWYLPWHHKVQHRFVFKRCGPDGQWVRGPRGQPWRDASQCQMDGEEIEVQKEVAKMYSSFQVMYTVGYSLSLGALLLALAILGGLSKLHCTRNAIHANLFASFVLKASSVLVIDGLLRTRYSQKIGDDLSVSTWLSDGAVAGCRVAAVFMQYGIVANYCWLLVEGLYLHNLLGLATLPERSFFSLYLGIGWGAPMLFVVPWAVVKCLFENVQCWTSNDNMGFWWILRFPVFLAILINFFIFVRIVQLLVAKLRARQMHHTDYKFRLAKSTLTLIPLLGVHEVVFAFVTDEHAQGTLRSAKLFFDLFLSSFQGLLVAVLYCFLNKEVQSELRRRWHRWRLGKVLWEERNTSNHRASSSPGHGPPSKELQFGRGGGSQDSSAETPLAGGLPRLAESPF
T2 sequence (Q8TDS5 whole entry): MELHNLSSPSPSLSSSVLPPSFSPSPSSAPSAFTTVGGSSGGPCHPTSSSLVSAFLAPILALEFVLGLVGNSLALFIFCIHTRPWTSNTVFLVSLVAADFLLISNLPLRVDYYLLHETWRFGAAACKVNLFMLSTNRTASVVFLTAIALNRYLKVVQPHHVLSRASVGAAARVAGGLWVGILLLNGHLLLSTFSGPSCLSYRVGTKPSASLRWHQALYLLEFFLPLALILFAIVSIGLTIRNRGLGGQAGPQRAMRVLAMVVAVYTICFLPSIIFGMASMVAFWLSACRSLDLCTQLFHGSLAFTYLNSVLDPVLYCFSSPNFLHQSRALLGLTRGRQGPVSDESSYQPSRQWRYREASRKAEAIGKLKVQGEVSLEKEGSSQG

SMILES | NanoBRET Fold Response (GCGR; GCGR, tracer 0.1μM) | NanoBRET Fold Response (GCGR; GCGR, tracer 1μM) | NanoBRET Fold Response (OXER1; OXER1, tracer 0.1μM) | NanoBRET Fold Response (OXER1; OXER1, tracer 1μM) | NanoBRET Fold Response (XCR1; XCR1, tracer 0.1μM) | NanoBRET Fold Response (XCR1; XCR1, tracer 1μM) | also measured
Cc1nc2n(c(=O)c1CCN1CCC(c3noc4cc(F)ccc34)CC1)CCCC2OC(=O)NCCOCCOCCOCCOCCNC(=O)CCc1ccc2n1[B-](F)(F)[N+]1=C(c3ccc[nH]3)C=CC1=C2 (centres unmarked) [Risperidone-2-NB590] | 0.97 | 0.93 | 1.03 | 1.18 | 0.97 | 0.88 | 
COc1ccc2[nH]c(-c3ccc(CNC(=O)CCOCCOCCOCCOCCNC(=O)CCc4ccc5n4[B-](F)(F)[N+]4=C(c6ccc[nH]6)C=CC4=C5)cc3)c(CCNC(C)=O)c2n1 [AzomelatoninICO9-2-NB590] |  |  |  |  |  |  | NanoBRET Fold Response (GCGR; 0.1μM tracer): 0.90; NanoBRET Fold Response (GCGR; 1μM tracer): 1.05; NanoBRET Fold Response (OXER1; 0.1μM tracer): 1.11; NanoBRET Fold Response (OXER1; 1μM tracer): 0.83; NanoBRET Fold Response (XCR1; 0.1μM tracer): 0.42; NanoBRET Fold Response (XCR1; 1μM tracer): 0.90
COc1ccccc1N1CCN(CCCCN2C(=O)c3ccc(CNC(=O)CCOCCOCCOCCOCCNC(=O)CCc4ccc5n4[B-](F)(F)[N+]4=C(c6ccc[nH]6)C=CC4=C5)cc3C2=O)CC1 [NAN-190-2-NB590] | 1.06 | 1.06 | 0.95 |  | 1.44 |  | 
O=C(CCc1ccc2n1[B-](F)(F)[N+]1=C(c3ccc[nH]3)C=CC1=C2)NCCOCCOCCNC(=O)OCCOCCN1CCN(C2=Nc3ccccc3Sc3ccccc32)CC1 [Quetiapine-a-2-NB590] | 0.94 | 0.73 | 0.99 | 0.98 | 1.07 | 1.04 | 
O=C(CCOCCOCCOCCOCCNC(=O)CCc1ccc2n1[B-](F)(F)[N+]1=C(c3ccc[nH]3)C=CC1=C2)NCCCN1CCN(C2=Nc3cc(Cl)ccc3Nc3ccccc32)CC1 [Clozapine-a-2-NB590] |  |  |  |  |  |  | NanoBRET Fold Response (GCGR; GCGR, 0.1μM tracer): 0.94; NanoBRET Fold Response (GCGR; GCGR, 1μM tracer): 1.14; NanoBRET Fold Response (OXER1; OXER1, 0.1μM tracer): 0.95; NanoBRET Fold Response (OXER1; OXER1, 1μM tracer): 1.00; NanoBRET Fold Response (XCR1; XCR1, 0.1μM tracer): 1.01; NanoBRET Fold Response (XCR1; XCR1, 1μM tracer): 0.98
N#CN=C(NCCCOc1cccc(CN2CCCCC2)c1)NCCNC(=O)CCOCCOCCOCCOCCNC(=O)CCc1ccc2n1[B-](F)(F)[N+]1=C(c3ccc[nH]3)C=CC1=C2 [Aminopotentidine-2-NB590] | 0.95 | 1.04 | 1.10 | 1.01 | 1.11 | 0.87 | 
O=C(CCc1ccc2n1[B-](F)(F)[N+]1=C(c3ccc[nH]3)C=CC1=C2)NCc1ccc(C(=O)NCCOCCOCCNCC(O)COc2cccc3ccccc23)cc1 (centres unmarked) [Propranolol-3-NB590] |  |  |  |  |  |  | NanoBRET Fold Response (GCGR; GCGR, 0.1μM): 1.03; NanoBRET Fold Response (GCGR; GCGR, 1μM): 0.96; NanoBRET Fold Response (OXER1; OXER1, 0.1μM): 1.09; NanoBRET Fold Response (OXER1; OXER1, 1μM): 1.00; NanoBRET Fold Response (XCR1; XCR1, 0.1μM): 1.02; NanoBRET Fold Response (XCR1; XCR1, 1μM): 0.97
CN(CCC=C1c2ccccc2CCc2ccccc21)C(=O)CCOCCOCCOCCOCCNC(=O)CCc1ccc2n1[B-](F)(F)[N+]1=C(c3ccc[nH]3)C=CC1=C2 [Amitriptyline-e-2-NB590] |  |  |  |  |  |  | NanoBRET Fold Response (XCR1; tracer at 1μM): 0.99
